Source: ChEMBL document CHEMBL1136816, “Synthesis and evaluation of ether and halogenated derivatives of mannopeptimycin glycopeptide antibiotics” (2003)
In brackets after ≈: the same amount, converted by molar mass.

Experiments:
Format in all cases: functional
Staphylococcus aureus [1] = test: In vitro minimum inhibitory concentration against Staphylococcus aureus; 16-32
Enterococcus sp. [2] = test: In vitro minimum inhibitory concentration against Enterococcus species; 16-32
Streptococcus sp. [3] = test: In vitro minimum inhibitory concentration against Streptococcus species; 1-16
Staphylococcus aureus [4] = test: In vitro minimum inhibitory concentration against Staphylococcus aureus; 1-4
Streptococcus sp. [5] = test: In vitro minimum inhibitory concentration against Streptococcus species; </=0.12-0.5
Enterococcus sp. [6] = test: In vitro minimum inhibitory concentration against Enterococcus species; 2-16
Enterococcus sp. [7] = test: In vitro minimum inhibitory concentration against Enterococcus species; 2-4
Streptococcus sp. [8] = test: In vitro minimum inhibitory concentration against Streptococcus species; </=0.06-0.12
Staphylococcus aureus [9] = test: In vitro minimum inhibitory concentration against Staphylococcus aureus; 2-4
Staphylococcus aureus [10] = test: In vitro minimum inhibitory concentration against Staphylococcus aureus; 2-8
Enterococcus sp. [11] = test: In vitro minimum inhibitory concentration against Enterococcus species; 4-32
Streptococcus sp. [12] = test: In vitro minimum inhibitory concentration against Streptococcus species; 0.5-2
Enterococcus sp. [13] = test: In vitro minimum inhibitory concentration against Enterococcus species; 8-16
Staphylococcus aureus [14] = test: In vitro minimum inhibitory concentration against Staphylococcus aureus; 4-8
Streptococcus sp. [15] = test: In vitro minimum inhibitory concentration against Streptococcus species
Staphylococcus aureus [16] = test: In vitro minimum inhibitory concentration against Staphylococcus aureus
Enterococcus sp. [17] = test: In vitro minimum inhibitory concentration against Enterococcus species
Enterococcus sp. [18] = test: In vitro minimum inhibitory concentration against Enterococcus species; 4-16
Streptococcus sp. [19] = test: In vitro minimum inhibitory concentration against Streptococcus species; </=0.06-2

## C[C@@H](c1ccccc1)[C@@H]1NC(=O)CNC(=O)[C@H](CO)NC(=O)[C@@H]([C@@H](O)[C@@H]2CN=C(N)N2[C@H]2O[C@H](CO)[C@@H](O)[C@H](O)[C@@H]2O)NC(=O)[C@H]([C@@H](O)[C@@H]2CN=C(N)N2)NC(=O)[C@@H](Cc2ccc(O[C@H]3O[C@H](CO)[C@@H](O[C@H]4O[C@H](CO)[C@@H](OC/C=C/c5ccc(N(C)C)cc5)[C@H](O)[C@@H]4O)[C@H](O)[C@@H]3O)cc2)NC1=O
Staphylococcus aureus [1]
  MIC: 16 µg/mL (≈ 11 µM)
Enterococcus sp. [2]
  MIC: 16 µg/mL (≈ 11 µM)
Streptococcus sp. [3]
  MIC: 1 µg/mL (≈ 0.688 µM)

## COc1ccc(COC[C@H]2O[C@H](O[C@H]3[C@H](O)[C@H](O)[C@@H](Oc4ccc(C[C@H]5NC(=O)[C@H]([C@@H](C)c6ccccc6)NC(=O)CNC(=O)[C@H](CO)NC(=O)[C@@H]([C@@H](O)[C@@H]6CN=C(N)N6[C@H]6O[C@H](CO)[C@@H](O)[C@H](O)[C@@H]6O)NC(=O)[C@H]([C@@H](O)[C@@H]6CN=C(N)N6)NC5=O)cc4)O[C@@H]3CO)[C@@H](O)[C@@H](O)[C@@H]2O)c2ccccc12
Staphylococcus aureus [4]
  MIC: 1 µg/mL (≈ 0.682 µM)
Streptococcus sp. [5]
  MIC: ≤ 0.12 µg/mL
Enterococcus sp. [6]
  MIC: 2 µg/mL (≈ 1.36 µM)

## C[C@@H](c1ccccc1)[C@@H]1NC(=O)CNC(=O)[C@H](CO)NC(=O)[C@@H]([C@@H](O)[C@@H]2CN=C(N)N2[C@H]2O[C@H](CO)[C@@H](O)[C@H](O)[C@@H]2O)NC(=O)[C@H]([C@@H](O)[C@@H]2CN=C(N)N2)NC(=O)[C@@H](Cc2ccc(O[C@H]3O[C@H](CO)[C@@H](O[C@H]4O[C@H](COCc5ccc(Oc6ccccc6)cc5)[C@@H](O)[C@H](O)[C@@H]4O)[C@H](O)[C@@H]3O)cc2)NC1=O
Enterococcus sp. [7]
  MIC: 2 µg/mL (≈ 1.35 µM)
Streptococcus sp. [8]
  MIC: ≤ 0.06 µg/mL
Staphylococcus aureus [9]
  MIC: 2 µg/mL (≈ 1.35 µM)

## COc1ccc(COC[C@H]2O[C@H](O[C@H]3[C@H](O)[C@H](O)[C@@H](Oc4ccc(C[C@H]5NC(=O)[C@H]([C@@H](C)c6ccccc6)NC(=O)CNC(=O)[C@H](CO)NC(=O)[C@@H]([C@@H](O)[C@@H]6CN=C(N)N6[C@H]6O[C@H](CO)[C@@H](O)[C@H](O)[C@@H]6O)NC(=O)[C@H]([C@@H](O)[C@@H]6CN=C(N)N6)NC5=O)cc4)O[C@@H]3CO)[C@@H](O)[C@@H](O)[C@@H]2O)cc1F
Staphylococcus aureus [10]
  MIC: 2 µg/mL (≈ 1.4 µM)
Enterococcus sp. [11]
  MIC: 4 µg/mL (≈ 2.79 µM)
Streptococcus sp. [12]
  MIC: 0.5 µg/mL (≈ 0.349 µM)

## C[C@@H](c1ccccc1)[C@@H]1NC(=O)CNC(=O)[C@H](CO)NC(=O)[C@@H]([C@@H](O)[C@@H]2CN=C(N)N2[C@H]2O[C@H](CO)[C@@H](O)[C@H](O)[C@@H]2O)NC(=O)[C@H]([C@@H](O)[C@@H]2CN=C(N)N2)NC(=O)[C@@H](Cc2ccc(O[C@H]3O[C@H](CO)[C@@H](O[C@H]4O[C@H](COC/C=C/c5ccccc5)[C@@H](O)[C@H](O)[C@@H]4O)[C@H](O)[C@@H]3O)cc2)NC1=O
Enterococcus sp. [13]
  MIC: 8 µg/mL (≈ 5.67 µM)
Staphylococcus aureus [14]
  MIC: 4 µg/mL (≈ 2.83 µM)
Streptococcus sp. [12]
  MIC: 0.5 µg/mL (≈ 0.354 µM)

## C[C@@H](c1ccccc1)[C@@H]1NC(=O)CNC(=O)[C@H](CO)NC(=O)[C@@H]([C@@H](O)[C@@H]2CN=C(N)N2[C@H]2O[C@H](CO)[C@@H](O)[C@H](O)[C@@H]2O)NC(=O)[C@H]([C@@H](O)[C@@H]2CN=C(N)N2)NC(=O)[C@@H](Cc2ccc(O[C@H]3O[C@H](CO)[C@@H](O[C@H]4O[C@H](CO)[C@@H](O)[C@H](O)[C@@H]4O)[C@H](O)[C@@H]3O)c(I)c2)NC1=O
Streptococcus sp. [15]
  MIC: > 128 µg/mL
Staphylococcus aureus [16]
  MIC: > 128 µg/mL
Enterococcus sp. [17]
  MIC: > 128 µg/mL

## COc1ccc(CO[C@H]2[C@H](O)[C@H](O)[C@@H](O[C@H]3[C@H](O)[C@H](O)[C@@H](Oc4ccc(C[C@H]5NC(=O)[C@H]([C@@H](C)c6ccccc6)NC(=O)CNC(=O)[C@H](CO)NC(=O)[C@@H]([C@@H](O)[C@@H]6CN=C(N)N6[C@H]6O[C@H](CO)[C@@H](O)[C@H](O)[C@@H]6O)NC(=O)[C@H]([C@@H](O)[C@@H]6CN=C(N)N6)NC5=O)cc4)O[C@@H]3CO)O[C@@H]2CO)cc1OCc1ccccc1
Enterococcus sp. [18]
  MIC: 4 µg/mL (≈ 2.63 µM)
Staphylococcus aureus [9]
  MIC: 2 µg/mL (≈ 1.31 µM)
Streptococcus sp. [19]
  MIC: ≤ 0.06 µg/mL
